From patent US20100227307A1, “ERGOTHIONEINE AND/OR ITS DERIVATIVES AS A CELL PRESERVATIVE” (priority 2007, published 2010)

How the values were obtained:
[1] = test system: liver tissue of rats; settings: exogenous L-ergothioneine; cited from earlier work
[2] = test system: Stallion named IKE's semen (sperm cells); test: Post-thaw motility of frozen stallion semen in five extenders (Sperm Vision analysis); type: cell-based; settings: ergothioneine added to traditional semen extender compositions
Protocol: The resulting sperm pellet was then split 5 ways and resuspended with the five different extenders tested. DMSO and EQUIPRO® cryoguards were frozen right away. […] Semen was frozen using the ice cube freezer. Semen straws were thawed at 37° C. for 1 minute. Semen was diluted at one to ten in EQUIPRO® concentrate to analyze using sperm vision. All five extenders were measured for motility (total motility and forward progressive motility, FPM) using Sperm Vision® software, a high-resolution, rapid scan digital camera on a plain glass slide. Measurements were taken at 0 min post thaw, 30 min and 60 min post thaw.

[3] = test system: mouse liver; settings: cited from earlier work

**Q.** For `C[N+](C)(C)[C@@H](Cc1c[nH]c(=S)[nH]1)C(=O)[O-]` [ergothioneine, L-ergothioneine], which “lipid peroxidation by toxic compounds” value [1] is on record?
**A.** Its value is “prevent lipid peroxidation”.

**Q.** And the sperm cell survival [2]?
**A.** Its sperm cell survival is “significant improvement”.

**Q.** What about the surviving cell motility [2] of the same compound?
**A.** The surviving cell motility was “significant improvement”.

**Q.** What about the LPO formation [3] of the same compound?
**A.** The LPO formation was “inhibited LPO formation”.

**Q.** What about the “decomposition of existing LPO” value [3] of the same compound?
**A.** Its value is “enhanced the decomposition of existing LPO”.
